Measurements from patent US20050171424A1, “Methods for imaging the lymphatic system using dendrimer-based contrast agents” (The Gov. of the USA as rep. by the Secretary of the Dept. …, priority 2004, published 2005).

Tests used:
deep lymphatic system = test: Whole-body dynamic 3D-micro-MR lymphangiography of normal mice (Example 2); assay type: in vivo; conditions: for Number of Mice in Which the Thoracic Duct was Visualized/Number of Mice Examined: Normal Mice, 0.1 μmolGd intracutaneously into four middle phalanges; for Axillary lymph node-to-background (muscle) signal intensity ratio, comparison between agents: T1-weighted signal, P<0.01, FIG. 9A; for Axillary lymph node-to-background (muscle) signal intensity ratio, comparison between agents / Axillary lymph node-to-liver signal intensity ratio, comparison between agents: all time points examined; for Axillary lymph node-to-liver signal intensity ratio, comparison between agents: P<0.01, FIG. 9B; for Visualization of the deep lymph nodes: normal mice, 10 to 45 min after intracutaneous injection, FIGS. 7, 8
Method: (§1) The mice were anesthetized with 1.15 mg sodium pentobarbital (Dainabot, Osaka, Japan) i.p., and then injected intracutaneously with 0.1 μmolGd of PAMAM-G8, DAB-G5, PAMAM-G4, Gadomer-17, or GPDM into four middle phalanges in all four extremities. Dynamic micro-MR images were obtained using a 1.5-Tesla superconductive magnet unit (Signa LX, General Electric Medical System, Milwaukee, Wis.) with a round birdcage type coil of 3 cm diameter fixed by a custom-made coil holder. Four to eight female mice (7 weeks old, 18-21 g body weight) in each group were used and each contrast agent was prepared at least three separate times for these imaging studies. The mice were wrapped with gauze to stabilize their body temperature and were placed at the center of the coils.
(§2) A 3D-fast spoiled gradient echo [3D-fastSPGR (efgre3d package; Signa Horizon, GE); repetition time/echo time 28.5/7.9 msec; inversion time 65 msec; 31.2 kHz, flip angle 30°, four excitations; 40 slice-encoding steps; scan time 7 min 36 seconds] with chemical shift fat-suppression was used 10, 20, 30, and 45 min after injection of the contrast agents. The coronal images were reconstructed with 0.6-mm section thickness at every 0.3-mm. The FOV was 6×3 cm and the size of the matrix was 512×256. The intensities of the regions of interest (ROIs) (for example, a whole axillary lymph node, and the liver) were measured, and then the time-intensity curves analyzed. The data were expressed as the axillary lymph node-to-muscle and the axillary lymph node-to-liver ratios. The slice data were processed into 3D images using the MIP method with the same window and level (window 3500 and level 2300) (Advantage Windows, General Electric Medical System). Two board-certified radiologists separately read a set of stereo views of 3D-MRL for all studies, and estimated the visualization of the thoracic duct. After imaging, the mice were sacrificed by carbon dioxide inhalation.
Statistical analyses were performed using either Student's t-test or a one-way analysis of variance (ANOVA), with a pairwise comparison using the Bonferroni method for signal intensity curves (Statview; SAS Institute Inc., Cary, N.C.).

[1] = Distribution and survival properties of the dendrimer conjugates; conditions: in vivo
[2] = system: draining lymph nodes and lymphatic vessels; test: 3D dynamic mammo-lymphangiograms after sequential injection of GPDM and PAMAM-G6 into the mammary gland; assay type: in vivo, athymic nu/nu mice; conditions: 0.15 μmol Gd into mammary gland; GPDM imaged at 12, 24, 36 min, then PAMAM-G6 injected 36 minutes following GPDM
Method: Mice were anesthetized with 1.15 mg sodium pentobarbital (Dainabot, Osaka, Japan), and then injected with 0.15-0.24 μmol Gd/5-8 μL of the PAMAM-G6 contrast agent into normal mammary glands or mammary tissue surrounding a tumor (peritumorally). Dynamic micro-MR images were obtained using a 1.5-Tesla superconductive magnet unit (Signa LX, General Electric Medical System, Milwaukee, Wis.) with a birdcage type coil of 3 cm diameter fixed by a custom made coil holder. [Single and double “breast coils” used for imaging breasts in humans are commercially available, for example, from GE Medical Systems (Milwaukee, Wis.) and are routinely available in outpatient MRI centers] The mice were wrapped with gauze to stabilize their body temperature and were placed at the center of the coils. Athymic nu/nu mice (n=4) were anesthetized and injected with 0.15 μmol Gd of GPDM into the mammary gland, and images were taken 12, 24, and 36 min after injection. Following these three images, these mice were subsequently injected with 0.15 μmol Gd of PAMAM-G6 contrast agent in the mammary gland, and images were taken at 12 and 24 min post-injection of the PAMAM-G6 contrast agent (at 48 and 60 min post-injection of GPDM).

[3] = system: deep lymph nodes, thoracic duct and lymphatic vessels; test: Whole-body 3D-micro-MR lymphangiography of normal mice, PAMAM-G8 versus GPDM (Example 3); assay type: in vivo; conditions: intracutaneous injection, 0.05 mmolGd/kg (FIG. 13)
Method: as §1, §2
In this example, the PAMAM-G8 contrast agent is compared to GPDM. PAMAM-G8 was prepared as described in Example 2, and GPDM was purchased (Schering AG, Berlin, Germany). Animal models, administration of the contrast agents, and 3D-micro-MRL were as described in Example 2.

[4] = system: lymph nodes and lymphatic vessels of IL-15 transgenic mice; test: 3D-micro-MRL in IL-15 transgenic lymphoproliferative/neoplastic disease model; assay type: in vivo; conditions: 45 minutes after injection, FIGS. 11, 15A
Method: Eight- to 10-month old IL-15 transgenic mice (on a C57BL6 background) were used as a chronic lymphoproliferative/neoplastic disease model because they manifested selective expansion of NK, CD8^+NK-T, γδIELs, and CD8 T cells in the periphery. Most of the lymph nodes collected from an aged IL-15 transgenic mouse were enlarged in size. The lesion of proliferated monoclonal lymphocytes often involved the lung and the subcutaneous lymphatic tissue.
as §1
as §2, with “The FOV was 6×3 cm and the size of the matrix was 512×256.” left out, “The slice data were processed into 3D images using the MIP method with the same window and level (window 3500 and level 2300) (Advantage Windows, General Electric Medical System).” left out, “After imaging, the mice were sacrificed by carbon dioxide inhalation.” left out

Row | Compound | Number of Mice in Which the Thoracic Duct was Visualized/Number of Mice Examined (deep lymphatic system; 10 min) | Number of Mice in Which the Thoracic Duct was Visualized/Number of Mice Examined (deep lymphatic system; 20 min) | Number of Mice in Which the Thoracic Duct was Visualized/Number of Mice Examined (deep lymphatic system; 30 min) | Number of Mice in Which the Thoracic Duct was Visualized/Number of Mice Examined (deep lymphatic system; 45 min) | Axillary lymph node-to-background (muscle) signal intensity ratio, comparison between agents (deep lymphatic system) | Axillary lymph node-to-liver signal intensity ratio, comparison between agents (deep lymphatic system) | Visualization of the deep lymph nodes (deep lymphatic system) | Distribution within the lymphatic system [1] | Survival in the blood circulation and excretion [1] | Visualization of draining lymph nodes and lymphatic vessels (FIG. 3) [2] | Image enhancement (deep lymphatic system; 45 minutes after injection, FIG. 8B) | Visualization of deep lymph nodes throughout the body [3] | Lymph node findings on 3D-micro-MRL [4]
1 | Gadomer-17 [reference compound] | 2/5 | 2/5 | 1/5 | 1/5 | significantly higher than that acquired with GPDM | nearly equivalent, but were significantly higher than that measured with GPDM | allowed visualization of the deep lymph nodes, albeit not as clearly and brightly as the dendrimer-based agents | – | – | – | – | – | –
2 | PAMAM-G4D-(Gd-1B4M)64 dendrimer conjugate | 4/5 | 4/5 | 3/5 | 2/5 | significantly higher than that measured with Gadomer-17 and GPDM | significantly higher than that acquired with PAMAM-G8, DAB G-5, or Gadomer-17 | – | tend to accumulate in the lymph nodes rather than the vessels | short survival in the blood circulation due to a rapid renal excretion without significant retention in other organs | – | – | – | –
3 | CNC[C@H](O)[C@@H](O)[C@H](O)[C@H](O)CO.CNC[C@H](O)[C@@H](O)[C@H](O)[C@H](O)CO.O=C([O-])CN(CCN(CC(=O)[O-])CC(=O)O)CCN(CC(=O)[O-])CC(=O)O.[Gd+3] [GPDM, gadopentetate dimeglumine, reference compound] | 2/5 | 0/5 | 0/5 | 0/5 | – | – | did not allow most of the lymph nodes to be visualized even at early times | – | – | not well visualized | Virtually no image enhancement | but not with GPDM | –
4 | DAB-Am-128-(Gd-1B4M)128 dendrimer conjugate [DAB-G5] | 3/5 | 2/5 | 0/5 | 0/5 | significantly higher than that obtained with either PAMAM-G8 or PAMAM-G4 | nearly equivalent, but were significantly higher than that measured with GPDM | – | tend to accumulate in the lymph nodes rather than the vessels | – | – | – | – | considerable multiple lymph node swellings with central filling defects
